# Literature values in US11865201B2, “Product for dyeing keratinous material, containing aminosilicone, a chromophoric compound and ethoxylated fatty acid ester” (Henkel AG & Co. KGaA, priority 2019, dated 2024).
# Details: 25° C.
solubility in water (in words),SMILES,solubility in water
–,CCN(Cc1cccc(S(=O)(=O)[O-])c1)c1ccc(C(=C2C=CC(=[N+](CC)Cc3cccc(S(=O)(=O)[O-])c3)C=C2)c2ccccc2S(=O)(=O)[O-])cc1.[Na+].[Na+] [Acid Blue 9],more than 20 wt. %
–,"O=S(=O)([O-])c1ccc(N=Nc2c(O)ccc3ccccc23)cc1.[Na+] [Acid Orange 7, sodium salt of 4-[(2-hydroxy-1-naphthyl)azo]benzene sulphonate]",more than 7 g/L
–,"Nc1cc(S(=O)(=O)[O-])cc2cc(S(=O)(=O)[O-])c(N=Nc3ccccc3)c(O)c12.[Na+].[Na+] [Acid Red 33, diantrium salt of 5-amino-4-hydroxy-3-(phenylazo)-naphthalene-2,7-disulphonate]",2.5 g/L
–,"O=C([O-])c1c(Cl)c(Cl)c(Cl)c(Cl)c1-c1c2c(Br)cc(=O)c(Br)c-2oc2c(Br)c(O)cc(Br)c12.O=C([O-])c1c(Cl)c(Cl)c(Cl)c(Cl)c1-c1c2c(Br)cc(=O)c(Br)c-2oc2c(Br)c(O)cc(Br)c12.[Na+].[Na+] [Acid Red 92, disodium salt of 3,4,5,6-tetrachloro-2-(1,4,5,8-tetrabromo-6-hydroxy-3-oxoxanthen-9-yl)benzoic acid]",greater than 10 g/L
highly soluble in water,"O=C([O-])C1=NN(c2ccc(S(=O)(=O)[O-])cc2)C(=O)C1N=Nc1ccc(S(=O)(=O)[O-])cc1.[Na+].[Na+].[Na+] (centres unmarked) [Acid Yellow 23, trisodium salt of 4,5-dihydro-5-oxo-1-(4-sulfophenyl)-4-((4-sulfophenyl)azo)-1H-pyrazole-3-carboxylic acid]",–
